Measured values as given in patent US7166598B2, “Piperazine derivatives” (Astellas Pharma Inc., priority 1998, dated 2007).

**Q.** With `Cl.Cl.Cl.O=C(c1cc(Cl)cc(C(F)(F)F)c1)N1CCN(CCN2CCc3ncccc3C2)C[C@H]1Cc1ccc(Cl)cc1` as the molecule, how does the melting point read?
**A.** Its melting point is 130.6 to 135.7 °C.

**Q.** For `CN(C)c1cc(C(=O)N2CCN(CCN3CCc4ncccc4C3)C[C@H]2Cc2ccc(Cl)cc2)cc(C(F)(F)F)c1.Cl.Cl.Cl`, which melting point is on record?
**A.** The melting point was 209 to 214 °C.

**Q.** With `Cl.Cl.Cl.O=C(c1cc(C(F)(F)F)cc(C(F)(F)F)c1)N1CCN(CCN2CCc3ncccc3C2)C[C@H]1Cc1ccc(Cl)c(O)c1` as the molecule, how does the melting point read?
**A.** Its melting point is 237 to 243 °C (dec.).

**Q.** For `CN(C)S(=O)(=O)c1cc(C(=O)N2CCN(CCN3CCc4ncccc4C3)C[C@H]2Cc2ccc(C(F)(F)F)cc2)cc(C(F)(F)F)c1.Cl.Cl.Cl`, which melting point is on record?
**A.** Its melting point is 190 to 194 °C.

**Q.** With `Cl.Cl.O=C(c1cc(C(F)(F)F)cc(C(F)(F)F)c1)N1CCN(CCN2CCC(F)(F)CC2)C[C@H]1Cc1ccc2ccccc2c1` as the molecule, how does the melting point read?
**A.** The melting point was greater than 250 °C.

**Q.** Which melting point does the source give for `Cl.Cl.O=C(c1cc(C(F)(F)F)cc(C(F)(F)F)c1)N1CCN(CCN2CCC(F)(F)CC2)C[C@H]1Cc1ccc(C(F)(F)F)cc1` here?
**A.** The melting point was 209 to 253 °C.

**Q.** Which melting point does the source give for `Cc1ccc(C[C@@H]2CN(Cc3nc(N)no3)CCN2C(=O)c2cc(C(F)(F)F)cc(C(F)(F)F)c2)cc1O.Cl.Cl` here?
**A.** Its melting point is 160 to 170 °C.

**Q.** For `CO[C@H]1CN(CCN2CCN(C(=O)c3cc(C(F)(F)F)cc(C(F)(F)F)c3)[C@H](Cc3ccc(Cl)c(O)c3)C2)C[C@@H]1OC.Cl.Cl`, which melting point is on record?
**A.** Its melting point is 150 to 155 °C.

**Q.** For `COc1cc(C(=O)N2CCN(CCN3CCc4ncccc4C3)C[C@H]2Cc2ccc(C(F)(F)F)cc2)cc(C(F)(F)F)c1.Cl.Cl.Cl`, which melting point is on record?
**A.** Its melting point is 185 to 191 °C.

**Q.** With `COC[C@@H]1CN(CCN2CCN(C(=O)c3cc(C(F)(F)F)cc(C(F)(F)F)c3)[C@H](Cc3ccc(F)c(F)c3)C2)CCO1.Cl.Cl` as the molecule, how does the melting point read?
**A.** The melting point was 196 to 198 °C.

**Q.** With `Cl.Cl.O=C(c1cc(C(F)(F)F)cc(C(F)(F)F)c1)N1CCN(Cc2c[nH]c3ncccc23)C[C@H]1Cc1ccc(Cl)c(O)c1` as the molecule, how does the melting point read?
**A.** The melting point was 197 to 200 °C.

**Q.** Which melting point does the source give for `COC[C@@H]1CN(CCN2CCN(C(=O)c3cc(C(F)(F)F)cc(C(F)(F)F)c3)[C@H](Cc3ccc(F)c(OC)c3)C2)[C@@H](C)CO1.Cl.Cl` here?
**A.** Its melting point is 140 to 164 °C.

**Q.** Which melting point does the source give for `Cl.Cn1cc(CN2CCN(C(=O)c3cc(C(F)(F)F)cc(C(F)(F)F)c3)[C@H](Cc3ccc(Cl)cc3)C2)cn1` here?
**A.** Its melting point is 210 to 245 °C (dec.).

**Q.** For `C[C@@H]1CN(CCN2CCN(C(=O)c3cc(C(F)(F)F)cc(C(F)(F)F)c3)[C@H](Cc3ccc(Cl)c(O)c3)C2)C[C@H](C)O1.Cl.Cl`, which melting point is on record?
**A.** The melting point was 172 to 175 °C.

**Q.** With `COC[C@@H]1CN(CCN2CCN(C(=O)c3cc(OC)cc(C(F)(F)F)c3)[C@H](Cc3ccc4ccccc4c3)C2)CCO1.Cl.Cl` as the molecule, how does the melting point read?
**A.** The melting point was 134 to 140 °C.

**Q.** With `Cc1ccc(C[C@@H]2CN(CCN3CCOc4cccnc43)CCN2C(=O)c2cc(C(F)(F)F)cc(C(F)(F)F)c2)cc1O.Cl.Cl` as the molecule, how does the melting point read?
**A.** Its melting point is 190 to 200 °C.

**Q.** Which melting point does the source give for `COc1cc(C[C@@H]2CN(CCN3C[C@@H](C)O[C@@H](C)C3)CCN2C(=O)c2cc(C(F)(F)F)cc(C(F)(F)F)c2)ccc1C(F)(F)F.Cl.Cl` here?
**A.** Its melting point is 160 to 170 °C.

**Q.** With `COc1cc(C(=O)N2CCN(CCCc3cccnc3)C[C@H]2Cc2ccc(F)cc2)cc(C(F)(F)F)c1.Cl.Cl` as the molecule, how does the melting point read?
**A.** The melting point was 111.5 to 118.3 °C.

**Q.** For `COc1cc(C[C@@H]2CN(CCN3C[C@H](OC)[C@@H](OC)C3)CCN2C(=O)c2cc(C(F)(F)F)cc(C(F)(F)F)c2)ccc1F.Cl.Cl`, which melting point is on record?
**A.** Its melting point is 112 to 120 °C.

**Q.** With `COC[C@@H]1CN(CCN2CCN(C(=O)c3cc(OC)cc(C(F)(F)F)c3)[C@H](Cc3ccc(Cl)cc3)C2)CCO1.Cl.Cl` as the molecule, how does the melting point read?
**A.** The melting point was 70 to 90 °C.

**Q.** For `COC[C@@H]1CN(CCN2CCN(C(=O)c3cc(Cl)cc(C(F)(F)F)c3)[C@H](Cc3ccc(Cl)cc3)C2)CCO1.Cl.Cl`, which melting point is on record?
**A.** The melting point was 148 to 153 °C.

**Q.** With `Cl.Cl.Cl.O=C(c1cc(Cl)cc(C(F)(F)F)c1)N1CCN(CCN2CCc3ncccc3C2)C[C@H]1Cc1ccc(Cl)c(O)c1` as the molecule, how does the melting point read?
**A.** Its melting point is 200 to 204 °C.

**Q.** For `COC[C@@H]1CN(CCN2CCN(C(=O)c3cc(Cl)cc(C(F)(F)F)c3)[C@H](Cc3ccc(F)c(OC)c3)C2)CCO1.Cl.Cl`, which melting point is on record?
**A.** Its melting point is 139 to 142 °C.

**Q.** Which melting point does the source give for `CSc1cc(C(=O)N2CCN(CCN3C[C@@H](C)O[C@@H](C)C3)C[C@H]2Cc2ccc(C(F)(F)F)cc2)cc(C(F)(F)F)c1.Cl.Cl` here?
**A.** The melting point was 154 to 156 °C.
